# Assay results as given in patent US20240336595A1, “BIFUNCTIONAL COMPOUNDS FOR DEGRADING BTK WITH DIMINISHED IMID ACTIVITY” (NURIX THERAPEUTICS, INC., priority 2021, published 2024).
# Entries after “also recorded” stand apart in the source; their conditions may differ.
# Assays:
# [1] = Exposure in cerebrospinal fluid after a single oral dose; type: in vivo, Male C57BL/6 mice; details: mouse, single oral dose 300 mg/kg
# Procedure: Male C57BL/6 mice were administered Compound 1 orally at 300 mg/kg and 4, 8, or 24 hours after dosing CSF and plasma was collected from three mice per time point. The concentration of Compound 1 in CSF and plasma was determined by LC/MS/MS; free plasma concentration was calculated by multiplying total plasma concentration by the previously determined percentage of Compound 1 unbound to plasma protein.
# plasma cell generation = test: Plasma cell generation upon NP-KLH immunization; type: in vivo, Mice
# Procedure: Mice were immunized by intraperitoneal injection of 200 μL of immunogen containing 100 μg NP-32-KLH (Biosearch Technologies, Cat. N-5060-25,Lot. 156285-01) and 1% Alum (Alhydrogel, 2%, Invivogen Cat. Vac-alu-250, Batch 0001715532, Exp. July 2022), prepared in phosphate buffered saline. Group 1 mice were not immunized and used as control. Mice in Group 2 to 5 were dosed orally once a day from Day 1 to Day 7 with compounds or vehicle for six additional days and then sacrificed the following day. Splenocytes and bone marrow were harvested 24 hours following the final dosing of compound on Day 7. Spleens harvested at the end of the study were dissociated, and red blood cells were lysed with ammonium-chloride-potassium (ACK) lysis buffer. 1 million cells per tissue were stained for each flow cytometry panel.
# Splenocytes were stained for lineage markers with fluorophore-conjugated antibodies and for NP hapten reactivity with NP-conjugated to phycoerythrin (NP-PE). Live single lymphocytes were gated for B cells (CD19+B220+) and then gated for IgD+ and IgD− B cells. IgD− B cells were then gated for germinal center B cells (Fas+GL-7+), and germinal center B cells were gated for NP+ cells on the basis of staining with NP-PE.
# An ordinary one-way ANOVA with Tukey's multiple comparisons test was performed, and all groups were compared to each other. * p<0.05, ** p<0.01,**** p<0.001. All comparisons without an asterisk were not significant.
# plasma cells = test: Plasma cell counts in spleen and bone marrow, established arthritis model; type: in vivo, male DBA/1 mice
# Source text: (B) Spleens harvested at the end of the study were dissociated, and red blood cells were lysed with ammonium-chloride-potassium (ACK) lysis buffer. 1.5 million cells per spleen were stained for flow cytometry, and live single lymphocytes were gated for plasma cells (CD138+ IgD−). Plasma cells numbers were normalized to total B cells in spleen (CD19+B220+).
# (C) Bone marrow was isolated from femurs harvested at the end of the study, and samples were processed and analyzed as in (B).
# In (B) and (C), ordinary one-way ANOVAs with Dunnett's multiple comparisons tests were performed.
# [2] = tested on: well-established arthritis; test: Mouse model of well-established arthritis, clinical arthritis score; type: in vivo, male DBA/1 mice
# MRL/lpr model = test: MRL/lpr lupus model; type: in vivo, MRL/lpr mice
# Procedure: Dexamethasone was used as positive control.
# Statistical significance was determined between vehicle control and treated groups by ANOVA with Dunnett's post-hoc analysis.
# Glomeruli size is a quantitative measure that correlates well with the histopathological grade and severity of nephritis in this model. Statistical significance was determined between vehicle control and treated groups by ANOVA with Dunnett's post-hoc analysis (glomerulus diameter) or with a Kruskal-Wallis test with Dunn's post-hoc analysis (summed scores). * p<0.05, ** p<0.01, *** p<0.001**** p<0.0001.
# BTK = BTK (Mus musculus, UniProt P35991); test: BTK level in B cells of dosed mice; type: in vivo, C57BL/6 mice; design: Single cell suspensions from each tissue were permeabilized and stained for lineage markers and intracellular BTK; from tissue; details: 30 mg/kg in water bottle; blood, spleens, peritoneum and bone marrow
# BTK, sequence (P35991 whole entry): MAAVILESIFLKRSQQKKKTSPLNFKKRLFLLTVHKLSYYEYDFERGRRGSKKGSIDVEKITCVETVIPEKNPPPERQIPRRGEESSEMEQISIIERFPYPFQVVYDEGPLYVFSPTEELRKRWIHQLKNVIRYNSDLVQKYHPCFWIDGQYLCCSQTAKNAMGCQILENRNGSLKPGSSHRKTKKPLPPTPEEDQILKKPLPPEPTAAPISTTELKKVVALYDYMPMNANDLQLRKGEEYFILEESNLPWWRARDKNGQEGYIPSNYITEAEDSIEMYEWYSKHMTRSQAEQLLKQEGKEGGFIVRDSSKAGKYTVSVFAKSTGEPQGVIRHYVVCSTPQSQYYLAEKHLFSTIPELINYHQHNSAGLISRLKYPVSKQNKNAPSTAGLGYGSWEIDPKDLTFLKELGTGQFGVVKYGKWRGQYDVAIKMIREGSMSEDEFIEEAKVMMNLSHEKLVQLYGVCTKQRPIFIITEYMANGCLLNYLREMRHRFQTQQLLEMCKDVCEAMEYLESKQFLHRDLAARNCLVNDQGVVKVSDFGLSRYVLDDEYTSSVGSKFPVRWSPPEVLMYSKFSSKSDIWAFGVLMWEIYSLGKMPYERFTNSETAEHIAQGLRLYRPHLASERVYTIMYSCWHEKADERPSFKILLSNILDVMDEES
# Procedure: A separate group of mice received vehicle formulation as control. Blood spleens and femurs for each treated mice were harvested at the end of the study. Peritoneal lavage was also performed with PBS to harvest peritoneal resident lymphocyte.
# To evaluate level of BTK in B cells, Single cell suspensions from each tissue were permeabilized and stained for lineage markers and intracellular BTK. B cells were gated on B220+ TCRbeta−, and T cells were gated on B220− and TCRbeta+.
# tumor-expressed BTK = target: T1, tumor-expressed BTK (Homo sapiens, UniProt Q06187); test: Intracranial TMD8 tumor model, BTK remaining in TMD8 cells; type: in vivo, female CB.17 SCID mice; details: 90 mg/kg orally every day for twelve days, vs vehicle
# T1 construct: endogenous in cells; host or cells: TMD8 cells (human ABC-DLBCL) grown intracranially in CB.17 SCID mice
# T1 sequence (Q06187 whole entry): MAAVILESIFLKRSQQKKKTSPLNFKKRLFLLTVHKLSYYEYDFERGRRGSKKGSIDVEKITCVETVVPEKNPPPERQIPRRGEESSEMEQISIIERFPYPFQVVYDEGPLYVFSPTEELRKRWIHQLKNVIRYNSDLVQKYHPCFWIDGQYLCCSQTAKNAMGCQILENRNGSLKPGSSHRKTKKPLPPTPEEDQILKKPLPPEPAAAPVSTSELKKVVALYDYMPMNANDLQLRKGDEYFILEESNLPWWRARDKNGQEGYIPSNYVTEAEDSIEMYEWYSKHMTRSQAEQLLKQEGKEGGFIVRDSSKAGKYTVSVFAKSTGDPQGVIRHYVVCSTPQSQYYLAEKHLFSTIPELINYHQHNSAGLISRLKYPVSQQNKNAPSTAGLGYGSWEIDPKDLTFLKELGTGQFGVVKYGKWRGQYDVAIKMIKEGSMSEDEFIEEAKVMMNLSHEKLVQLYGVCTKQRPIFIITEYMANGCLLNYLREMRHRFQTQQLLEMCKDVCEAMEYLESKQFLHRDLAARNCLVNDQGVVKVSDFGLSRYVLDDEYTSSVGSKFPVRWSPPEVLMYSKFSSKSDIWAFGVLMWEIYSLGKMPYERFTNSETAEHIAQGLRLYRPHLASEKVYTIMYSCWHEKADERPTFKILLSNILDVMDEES
# Procedure: TMD8 cells were implanted into female CB.17 SCID mice by intracranial injection of 5E5 TMD8 cells. Treatment with compound 1 begun the following day. Mice were treated orally every day for twelve days with either vehicle or 90 mg/kg of Compound 1. Brains were then harvested, dissociated into single cell suspensions and BTK level in TMD8 cells was assessed by flow cytometry. TMD8 cells in dissociated brain tissue were identified by human-specific surface markers (CD20+HLA+) and total numbers of TMD8 cells per brain is reported in (A, tumor burden). Percent BTK remaining in TMD8 cells (B) was calculated according to the below formula:
# 100*(tumor BTK MFI−background MFI)/(peak MFI−background MFI),
# where background MFI and peak MFI were calculated using TMD8 cells treated, in vitro, overnight with 1 μM compound 1 or DMSO control, respectively. In FIG. 8,**** p<0.0001; Welch's t-test was used to compare mice treated with compound 1 to mice treated with vehicle.
# [3] = tested on: Experimental autoimmune encephalomyelitis (EAE); test: Experimental autoimmune encephalomyelitis (EAE) model; type: in vivo, C57BL/6 mice
# Procedure: EAE was induced in C57BL/6 mice by immunization with an emulsion of MOG1-125 in complete Freund's adjuvant (CFA), followed by administration of pertussis toxin in PBS, first on the day of immunization (Day 0) and then again the following day (Day 1).
# Dosing of all mice started on Day −1 and continued through Day 22. Fingolimod (FTY720, Gilenya) is the a commonly used positive control in this model.
# Statistical significance was determined between vehicle control and treated groups based on the end clinical scores using Wilcoxon's non-parametric test.
# Statistical analysis: Demyelination (anti-MBP) with Wilcoxon's non-parametric test; inflammatory foci or apoptosis with two-tailed Student's t-test.
# [4] = H&E-stained kidney tissue, end of study
smiles,measurement,setting,value
CN1CCN([C@@H]2CCCN(c3cnc(C(N)=O)c(Nc4ccc(C5CCN(CC6CCN(c7ccc(C(=O)N[C@H]8CCC(=O)NC8=O)nc7)CC6)CC5)cc4)n3)C2)C1=O [Compound 1],ability to cross the blood brain barrier,[1],crosses the blood brain barrier
same,exposure in cerebral spinal fluid (CSF),"[1]; 4, 8, 24 hours",demonstrates exposure in cerebral spinal fluid (CSF)
same,generation of plasma cells upon immunization,"plasma cell generation; NP-KLH immunization, oral once a day Day 1 to Day 7",significantly decrease
same,germinal center formation,plasma cell generation; following NP-KLH immunization,do not affect
same,number of B cells in spleen,plasma cell generation; following NP-KLH immunization,do not affect
same,number of IgG1+ plasma cells in spleen,plasma cell generation; immunized mice,significantly decrease
same,number of total Plasma cells in spleen,plasma cell generation; immunized mice,significantly decrease
same,"plasma cells in spleen, normalized to total B cells","plasma cells; 30 mg/kg, vs 30 mg/kg rilzabrutinib and ibrutinib",significantly fewer plasma cells than mice treated with an equivalent dose of BTK inhibitors
same,"plasma cells in spleen, normalized to total B cells","plasma cells; both doses (10 and 30 mg/kg), vs vehicle",significantly fewer plasma cells than vehicle-treated mice
same,plasma cell numbers in the bone marrow,plasma cells; vs vehicle and vs equivalent doses of rilzabrutinib and ibrutinib,significantly reduced plasma cell numbers
same,disease (clinical arthritis score),"[2]; 10 mg/kg or 30 mg/kg once daily oral, started after arthritis was established, to Arthritis Day 14",strongly suppressed disease
same,control of disease compared with comparators,"[2]; Compound 1 and ibrutinib 30 mg/kg, Enbrel 10 mg/kg i.p., tofacitinib 30 mg/kg twice daily, rilzabrutinib",more potently than anti-TNF-alpha blocking antibody (Enbrel) or BTK inhibitors rilzabrutinib and tofacitinib
same,"protein urine score, statistically significant reduction vs vehicle","MRL/lpr model; 30 mg/kg, Urine Protein Score AUC",statistically significant reduction
same,anti-ds DNA autoantibody in end of study serum,"MRL/lpr model; 30 mg/kg, vs vehicle",statistically significant reduction
same,overall summed histology score,MRL/lpr model; [4],more effective than Ibrutinib
same,size of the glomeruli,MRL/lpr model; [4],more effective than Ibrutinib
same,kidney disease,MRL/lpr model; MRL/lpr model,significantly ameliorated kidney disease
same,urine protein score,"MRL/lpr model; daily oral, starting at 10 weeks of age, dose dependence",dose-dependent reduction of urine protein score
same,BTK level in B cells,BTK,robust BTK degradation
same,BTK in TMD8 tumor cells,tumor-expressed BTK,degradation of tumor-expressed BTK
same,BTK in TMD8 tumor cells,tumor-expressed BTK; listed as compound 1,degraded BTK
same,mean clinical score,"[3]; EAE, 30 mg/kg, compared with ibrutinib 30 mg/kg",superior to Ibrutinib; also recorded: lower mean clinical score than ibrutinib
same,EAE clinical scores,"[3]; prophylactic daily oral treatment, Day −1 through Day 22, dose dependence",dose-dependent reduction of EAE clinical scores
